Experimental data published in patent US7288533B2, “Topical application for treating toenail fungus” (priority 2004, dated 2007).

Key:
[1] = tested for use as a possible sedative; cited from earlier work
Candida albicans = assay: Hard surface carrier disinfection test (AOAC 991.47), colony count; type: cell-based; settings: for Colonies Of Candida Albicans Observed: carrier 15 min in culture; for Effect on the fungus: 25% loading, summary of Examples 1-15
Description: The compositions are evaluated according to an approved surface carrier disinfection test (Official Methods of Analysis of the Association of Official Analytical Chemists protocol 991.47: Hard surface carrier test method). Cultures of Candida albicans are grown for 24 hours at room temperature in trypsin soy broth to a density of approximately McFarland standard #10. Sterile glass cylinders (Belco Cat. #2090-[…]) serve as carriers. The carriers are coated with the test composition or the control composition and subsequently submerged in 5 ml of the stock culture and allowed to remain there for 15 minutes. The carriers are aseptically transferred to sterile, dry Whatman #1 filter paper, and excess droplets of the inoculation medium are removed. The carriers are dried at 37° C. for 40 minutes and then aseptically transferred to 5 ml of trypsin soy broth. They are then sonicated for 10 minutes in as water bath at 25° C. Tubes containing the sonicated carriers are vortexed, and a portion of the medium is placed onto trypsin soy agar plates, and incubated overnight at 37° C. Microbial growth is assessed by counting colonies.

| Compound | Toxicity [1] | Colonies Of Candida Albicans Observed (Candida albicans; 0.1 wt. % in mineral oil) | Colonies Of Candida Albicans Observed (Candida albicans; 1.0 wt. % in mineral oil) | Colonies Of Candida Albicans Observed (Candida albicans; 10 wt. % in mineral oil) | Effect on the fungus (Candida albicans) | Colonies Of Candida Albicans Observed (Candida albicans; 25 wt. % in mineral oil) | Colonies Of Candida Albicans Observed (Candida albicans; 50 wt. % in mineral oil) | Colonies Of Candida Albicans Observed (Candida albicans; 75 wt. % in mineral oil) |
| --- | --- | --- | --- | --- | --- | --- | --- | --- |
| CCCC1(C)COB(c2ccc(C)cc2)OC1 [I.S. 813, 2-(p-tolyl)-(5-methyl, 5-propyl)-1,3,2,-dioxiborinane] | very low | – | – | – | – | – | – | – |
| CC1CCOB(OCCC(C)OB2OCCC(C)O2)O1 (stereo not drawn) [compound S1, 2,2′-(1-methyltrimethylenedioxy) bis-(4-methyl-1,3,2-dioxaborinane)] | – | 8 | 2 | 0 | completely destroys the fungus | 0 | 0 | 0 |
| CC1CC(C)(C)OB(OB2OC(C)CC(C)(C)O2)O1 (stereo not drawn) [compound S2, 2,2′-oxybis (4,4,6-trimethyl-1,3,2-dioxaborinane)] | – | 11 | 1 | 0 | completely destroys the fungus | 0 | 0 | 0 |
